# Like-named read-outs stand apart in the source and are kept apart here.
# Assays:
# [1] = system: lean female mice; assay: Intravenous glucose tolerance test (IVGTT) in lean female mice; format: in vivo, mouse; details: 30 nmol/kg i.p. 15 min prior to IVGTT; trend towards lower response
# Method: Lean female mice (body weight 20–25 g), were randomized on body weight and fasted 4 hours prior to the IVGTT. Metabolex-36 (100 mg/kg) was administered orally 60 min and AZ13581837 (35mg/kg) 30 min before the IVGTT ([…]). Control mice were given vehicle (0.5% HPMC, 0.1% Tween-80) at corresponding time points. The specificity of AZ13581837 was examined in IVGTT in GPR120 null mice. GPR120 agonist doses were selected to reach plasma levels of at least 10 times over the in vitro EC50 value to achieve maximal activation of GPR120 (S2 Appendix). Thirty minutes prior to the glucose load, the mice were anaesthetised (20 mg/kg fluanisone/0.8 mg/kg fentanyl (Hypnorm®, Janssen, Beerse, Belgium) and 10 mg/kg midazolam (Dormicum®, Hoffman-LaRoche, Basel, Switzerland)) to allow for rapid blood sampling. The mice were kept at a heating pad to maintain body temperature.
# In separate experiments, mice were pretreated with the GLP-1 receptor antagonist exendin 9–39 (30 nmol/kg, Bachem; intraperitoneally) alone or in combination with the GPR120 agonists, 15 min prior to the IVGTT. Insulin and glucose were measured 0, 1, 5, 10, 20 and 40 min after intravenous (iv) glucose administration. In separate groups of mice total GLP-1 levels were measured 60 min after oral administration of Metabolex-36 or 30 min after AZ13581837 and in corresponding vehicle (0.5% HPMC, 0.1% Tween-80) dosed mice. Blood samples were collected in EDTA coated tubes, centrifuged at 10000xg for 4 min, and plasma was separated and stored frozen until analyzed.
# In the IVGTT, the acute insulin response (AIR) was calculated as the mean of suprabasal 1 and 5 min values, and the glucose elimination was quantified using the glucose elimination constant (KG) calculated as the slope of the logarithmic transformation of circulating glucose between 1 and 20 min after the glucose bolus. Multiple comparisons between the different groups were performed by one-way ANOVA. Tukey’s or Bonferroni’s post hoc test were used to calculate statistical differences between the groups. Significant statistical difference was considered at p<0.05. Data are presented as mean ± SEM.
# [2] = system: GPR120; design: method as in PMID 24997608; details: read-out: EC50 in calcium mobilization; cited from earlier work
# [3] = system: GPR120; design: method as in PMID 24997608; details: read-out: EC50 in β-arrestin; cited from earlier work
# [4] = system: islets from GPR120 null mice; assay: cAMP production in dispersed islet cells from GPR120 null mice; format: cell-based, mouse; details: 50 nM Exendin-4
# Method: (§1) Mouse islets were isolated from pancreas by collagenase digestion, handpicked under microscope following multiple washing steps and dispersed to single cells using TrypLE Express (Gibco). The dispersed islet cells (20 000 cells/well) were incubated with the GPR120 agonists for 30 min in 96-well black plates (Corning) at 37°C in Krebs ringer phosphate Hepes buffer, pH 7.4, with 11 mM Glucose, 0.1% BSA and 0.5 mM 3-isobutyl-1-methylxanthine followed by addition of d2-labeled cAMP and anti-cAMP Cryptate in conjugation and lysis buffer (Cisbio). Produced cAMP was detected with homogenous time resolved fluorescence (HTRF) (λex = 340 nm, λem = 665 and 615 nm) using a Pherastar (BMG Labtech).
# [5] = system: dispersed wt mouse islets cell; assay: cAMP production in dispersed wild type mouse islet cells; format: cell-based; details: 50 nM Exendin-4
# Method: as §1
# [6] = system: Caco-2 cells; design: method as in PMID 26791484; details: cited from earlier work
# [7] = target: T1, mouse GPR40 (Mus musculus, UniProt Q76JU9); assay: Calcium mobilization assay in HEK293-mGPR40 cells; format: cell-based; details: calcium mobilization
# T1 construct: expressed in transfected cells
# T1 sequence (Q76JU9 whole entry): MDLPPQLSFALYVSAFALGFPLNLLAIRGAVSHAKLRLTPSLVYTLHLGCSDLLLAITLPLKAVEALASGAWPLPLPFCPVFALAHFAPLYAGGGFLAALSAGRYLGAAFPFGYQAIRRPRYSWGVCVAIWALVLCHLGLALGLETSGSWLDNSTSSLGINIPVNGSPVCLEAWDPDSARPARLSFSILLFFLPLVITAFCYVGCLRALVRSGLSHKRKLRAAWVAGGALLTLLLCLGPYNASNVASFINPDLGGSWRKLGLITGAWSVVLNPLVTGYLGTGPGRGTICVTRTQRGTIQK
# Method: CHO-hGPR120 and CHO cells were cultured in DMEM/F-12 (Invitrogen) with 10% FBS (Sigma) and HEK293-mGPR40 in DMEM (Invitrogen) supplemented with 10% FBS in 384-well poly-D-Lysin coated microplates (Greiner) at 37°C, 95% humidity and 5% CO2. After 19 hours cell media was replaced with Calcium4 dye (Molecular Devices) in HBSS (Invitrogen), 20 mM HEPES (Invitrogen), pH 7.4 and 1.25 mM Probenecid (Sigma). After 1 hour at room temperature agonists were added and calcium mobilization was detected as change in fluorescence (λex = 488 and λem = 540 nm) using a FLIPR^TETRA (Molecular Devices).
molecule,measurement,setting,value
Exendin 9–39,"Insulin secretion, exendin 9–39 alone",[1],no significant effect
Exendin-4,cAMP production in islet cells from GPR120 null mice (positive control),[4],significantly stimulate cAMP production
same,cAMP production in islet cells from wt mice (positive control),[5],significantly stimulate cAMP production
O=C(O)CCc1ccc(NCc2cccc(Oc3ccccc3)c2)cc1 [GW9508],β-arrestin-2 recruitment in Caco-2 cells,[6],recruited β-arrestin-2
same,EC50,[7],0.9 ± 0.3 µM

# Source: article PMC5716539, “The acute glucose lowering effect of specific GPR120 activation in mice is mainly driven by glucagon-like peptide 1” (PLoS ONE, 2017)
